Experimental findings from patent publication US8313729B2, “Integrated photoactive small molecules and uses thereof” (Medibeacon, LLC, priority 2007, dated 2012) are described below.

Data set [1] is described as follows: Fluorescence excitation and emission. In kind it is physicochemical.
Data set [2] in a line: UV/vis absorption in PBS. It counts as physicochemical. To be noted: 100 μM in PBS.

Take `Nc1nc(C(=O)N[C@@H](CO)C(=O)O)c(N)nc1C(=O)N[C@@H](CO)C(=O)O` [Example 4, 3,6-Diamino-N^2,N^5-bis(serine)-pyrazine-2,5-dicarboxamide]: in data set [1] (concentration not given), the “Fluorescence λem” value worked out at 558 nm and the “Fluorescence λex” value was 432 nm. Besides, the “UV/vis λabs” value in data set [2] is 432 nm.

Turning to `N=C(N)c1ccc(CNC(=O)c2nc(N)c(C(=O)NCc3ccc(C(=N)N)cc3)nc2N)cc1` [Example 1, 3,6-diamino-N2,N5-bis(4-carbamimidoylbenzyl)pyrazine-2,5-dicarboxamide], in data set [1] (100 nM), the “Fluorescence λem” value is on record as 554 nm and the “Fluorescence λex” value is listed as 428 nm. In addition, the “UV/vis λabs” value in data set [2] is reported as 437 nm.

`Nc1nc(C(=O)NCC(O)CO)c(N)nc1C(=O)NCC(O)CO` (stereo not drawn) [Example 3, 3,6-diamino-N^2,N^5-bis(2,3-dihydroxypropyl)pyrazine-2,5-dicarboxamide]: in data set [1] (concentration not given), the “Fluorescence λem” value came to 559 nm and the “Fluorescence λex” value is listed as 449 nm. The “UV/vis λabs” value in data set [2] is given as 434 nm.
